This passage reports IC50 results from ChEMBL document CHEMBL5335864 (ACS Med Chem Lett, 2024).

For orientation: IC50 means the concentration that inhibits the measured activity by half.

The test system of this experiment is Plasmodium falciparum. In words: Antiplasmodial activity against Plasmodium falciparum NF54 infected in human erythrocytes measured after 48 hrs by [3H]hypoxanthine incorporation assay. In kind it is functional, organism-based. The note with it: NF54, Erythrocyte.

The structures appear in SMILES notation.

Turning to `FC1CN(CCc2ccc(-c3noc(C(F)(F)F)n3)cc2)CCC1Nc1nc2ccccc2[nH]1` (stereo unspecified), the half-inhibitory concentration (IC50) was found to be 219 nM.
